Laboratory results from patent US11214594B2, “Antimicrobial peptide having synergistic antibacterial effect with antibiotics on multidrug resistant bacteria, and use thereof” (priority 2016, dated 2022).
In brackets after ≈: the same amount, converted by molar mass. Where a SMILES comes first, the peptide text is derived from it. [ ]: non-standard residue; d: D form.

How the values were obtained:
MDRST 8007 = experiment: Minimal inhibitory concentration (MIC), single agent; format: cell-based, Salmonella typhimurium; settings: agent alone
Outline: (§1)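 Each strain is brought to 2×10^6 CFU in nutrient-sufficient Mueller-Hinton medium and dispensed into wells. Peptide solutions, stepwise diluted 2:1 in the same medium, are then added. The minimal concentration preventing growth gives the MIC.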

MDRAB 12036 = format: cell-based, Acinetobacter baumannii
Outline: as §1

MDRPA 2002 = format: cell-based, Pseudomonas aeruginosa
Outline: as §1

MDRPA 2003 = format: cell-based, Pseudomonas aeruginosa
Outline: as §1

S. aureus = experiment: microbe, parasite or virus in culture; format: cell-based, Staphylococcus aureus
Outline: as §1

MDREC 1238 = format: cell-based, Escherichia coli
Outline: as §1

MDRAB 12035 [1] = experiment: microbe, parasite or virus in culture; format: cell-based, Acinetobacter baumannii
Outline: as §1

A. baumannii = experiment: microbe, parasite or virus in culture; format: cell-based, Acinetobacter baumannii
Outline: as §1

[2] = system: multi-drug resistant bacteria; experiment: MIC, summary statements for multi-drug resistant bacteria; format: cell-based
Experimental: For the antibacterial activity, a minimal inhibitory concentration (MIC) of a peptide in which fungus bodies were not split in an MH medium with sufficient nutrients was measured.
Specifically, the strains described in the following [Table 2] were purchased and diluted with an MH medium such that the number of bacteria was 2×10^6 colony-forming units (CFUs), 100 μl of each of the diluted strains was aliquoted into a 96-well microtiter plate, and then 100 μl of a peptide solution diluted with the MH medium (solution diluted stepwise at 2: 1) was added to each well.

MDRAB 12035 [3] = experiment: MIC of antibiotic during combined treatment with antimicrobial peptide; format: cell-based, Acinetobacter baumannii
Outline: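 Antibiotic MIC came from antibiotic dilutions added to bacteria (2×10^6 CFU/ml, MH medium) already combined with peptide serially diluted 2:1 from its own MIC. Swapping the roles of the two agents gave the peptide MIC.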

S. typhimurium = experiment: microbe, parasite or virus in culture; format: cell-based, Salmonella typhimurium
Outline: as §1

MRSA 3126 = format: cell-based, Staphylococcus aureus; settings: 3126
Outline: as §1

MRSA 3114 = format: cell-based, Staphylococcus aureus; settings: 3114
Outline: as §1

[4] = peptide treatment concentration 1 μg/ml
[5] = peptide treatment concentration 2 μg/ml
[6] = peptide treatment concentration 4 μg/ml
[7] = peptide treatment concentration 6 μg/ml
[8] = peptide treatment concentration 8 μg/ml
[9] = peptide treatment concentration 16 μg/ml
[10] = peptide treatment concentration 32 μg/ml
[11] = peptide treatment concentration 64 μg/ml

CC[C@H](C)[C@H](NC(=O)[C@H](CCCCN)NC(=O)[C@H](Cc1c[nH]c2ccccc12)NC(=O)[C@@H](N)CCCNC(=N)N)C(=O)N[C@@H](Cc1ccccc1)C(=O)N[C@@H](CCCCN)C(=O)N[C@@H](CCCCN)C(=O)N[C@H](C(=O)N[C@H](CC(C)C)C(=O)N[C@@H](CCCCN)C(=O)N[C@@H](CC(C)C)C(=O)N[C@@H](CC(C)C)C(=O)N[C@@H](Cc1c[nH]cn1)C(=O)N[C@@H](CCCCN)C(=O)N[C@@H](C)C(=O)N[C@@H](CCCCN)C(=O)N[C@@H](CCCCN)C(=O)N[C@@H](Cc1c[nH]c2ccccc12)C(N)=O)[C@@H](C)CC [PapMA-22, RWK IFK KIl KLL HKA KKW-NH2] (H-RWKIFKKI[dL]KLLHKAKKW-NH2; N-terminus assumed)
Minimal inhibitory concentration MIC (MDRST 8007): 32 µg/mL (≈ 13.5 µM) | Minimal inhibitory concentration MIC (MDRAB 12036): 32 µg/mL (≈ 13.5 µM) | Minimal inhibitory concentration MIC (MDRPA 2002): 32 µg/mL (≈ 13.5 µM) | Minimal inhibitory concentration MIC (MDRPA 2003): 32 µg/mL (≈ 13.5 µM) | Minimal inhibitory concentration MIC (S. aureus): >128 µg/mL | Minimal inhibitory concentration MIC (MDREC 1238): 32 µg/mL (≈ 13.5 µM) | Minimal inhibitory concentration MIC (MDRAB 12035 [1]): 32 µg/mL (≈ 13.5 µM) | Peptide MIC, peptide alone (MDRAB 12035 [1]): 32 µg/mL | Minimal inhibitory concentration MIC (A. baumannii): 16 µg/mL (≈ 6.77 µM) | Peptide MIC, peptide alone (A. baumannii): 16 µg/mL | Antibacterial activity relative to PapMA-1 (A. baumannii; A. baumannii and S. typhimurium): at least twice as high | Antibacterial activity relative to PapMA-1 [2]: twice to four times higher | Erythromycin MIC during combined treatment with peptide (MDRAB 12035 [3]; [4]): 32 µg/mL | Linezolid MIC during combined treatment with peptide (MDRAB 12035 [3]; [4]): >128 µg/mL | Vancomycin MIC during combined treatment with peptide (MDRAB 12035 [3]; [4]): >128 µg/mL | Erythromycin MIC during combined treatment with peptide (MDRAB 12035 [3]; [5]): 32 µg/mL | Linezolid MIC during combined treatment with peptide (MDRAB 12035 [3]; [5]): >128 µg/mL | Vancomycin MIC during combined treatment with peptide (MDRAB 12035 [3]; [5]): >128 µg/mL | Erythromycin MIC during combined treatment with peptide (MDRAB 12035 [3]; [6]): 16 µg/mL | Linezolid MIC during combined treatment with peptide (MDRAB 12035 [3]; [6]): 64 µg/mL | Vancomycin MIC during combined treatment with peptide (MDRAB 12035 [3]; [6]): 128 µg/mL | Erythromycin MIC during combined treatment with peptide (MDRAB 12035 [3]; [7]): 2 µg/mL | Linezolid MIC during combined treatment with peptide (MDRAB 12035 [3]; [7]): 16 µg/mL | Vancomycin MIC during combined treatment with peptide (MDRAB 12035 [3]; [7]): 32 µg/mL | Erythromycin MIC during combined treatment with peptide (MDRAB 12035 [3]; [8]): 1 µg/mL | Linezolid MIC during combined treatment with peptide (MDRAB 12035 [3]; [8]): 16 µg/mL | Vancomycin MIC during combined treatment with peptide (MDRAB 12035 [3]; [8]): 16 µg/mL | Erythromycin MIC during combined treatment with peptide (MDRAB 12035 [3]; [9]): 0.25 µg/mL | Linezolid MIC during combined treatment with peptide (MDRAB 12035 [3]; [9]): 8 µg/mL | Vancomycin MIC during combined treatment with peptide (MDRAB 12035 [3]; [9]): 8 µg/mL | Erythromycin MIC during combined treatment with peptide (MDRAB 12035 [3]; [10]): 0 µg/mL | Linezolid MIC during combined treatment with peptide (MDRAB 12035 [3]; [10]): 0 µg/mL | Vancomycin MIC during combined treatment with peptide (MDRAB 12035 [3]; [10]): 0 µg/mL | Erythromycin MIC during combined treatment with peptide (MDRAB 12035 [3]; [11]): 0 µg/mL | Linezolid MIC during combined treatment with peptide (MDRAB 12035 [3]; [11]): 0 µg/mL | Vancomycin MIC during combined treatment with peptide (MDRAB 12035 [3]; [11]): 0 µg/mL | Minimal inhibitory concentration MIC (S. typhimurium): 32 µg/mL (≈ 13.5 µM) | Minimal inhibitory concentration MIC (MRSA 3126): >128 µg/mL | Minimal inhibitory concentration MIC (MRSA 3114): >128 µg/mL
